Several values for one entry are separate records, joined by “and”; a condition that tells them apart may be missing. Identical values can stand only once.
Tested on: patients with MUM
Experiment: Adverse events regardless of study drug relationship
Assay type: in vivo, human
Procedure: Routine safety assessments, including laboratory assessments, physical examinations, vital signs and electrocardiograms (ECGs), were conducted at regular intervals throughout the study and more frequently as needed following patient assessment by the treating physician. Adverse events (AEs) were assessed continuously according to the National Cancer Institute Common Terminology Criteria for Adverse Events (NCI-CTCAE) v4.03.

CC1(N)CCN(c2cccnc2NC(=O)c2nc(-c3ncccc3C(F)(F)F)cnc2N)CC1 [LXS196]
1 (2.6) n (%): Nausea, grade ≥3 (All QD) | Vomiting, grade ≥3 (All QD)
2 (50.0) n (%): Hypotension, all grades (1000 mg QD) | Patients with ≥1 AE, grade ≥3 (1000 mg QD)
27 (71.1) n (%): Nausea, all grades (All QD)
2 (2.9) n (%): Neutropenia, grade ≥3 (All patients)
14 (36.8) n (%): Patients with ≥1 AE, grade ≥3 (All QD)
5 (45.5) n (%): Diarrhoea, all grades (500 mg QD) | Vomiting, all grades (500 mg QD)
2 (5.3) n (%): ALT increased, grade ≥3 (All QD) | AST increased, grade ≥3 (All QD) | Dermatitis acneiform, all grades (All QD) | Neutropenia, grade ≥3 (All QD)
2 (6.7) n (%): ALT increased, grade ≥3 (All BID) | Neutropenia, all grades (All BID)
10 (90.9) n (%): Patients with ≥1 AE, all grades (500 mg QD)
0 n (%): Abdominal pain upper, grade ≥3 (500 mg QD) | Asthenia, grade ≥3 (500 mg QD) | Blood creatinine increased, all grades (500 mg QD) | Blood creatinine increased, grade ≥3 (500 mg QD) | Constipation, grade ≥3 (500 mg QD) | Decreased appetite, grade ≥3 (500 mg QD) | Dermatitis acneiform, grade ≥3 (500 mg QD) | Diarrhoea, grade ≥3 (500 mg QD) | Dry skin, grade ≥3 (500 mg QD) | Fatigue, grade ≥3 (500 mg QD) | Nasopharyngitis, all grades (500 mg QD) | Nasopharyngitis, grade ≥3 (500 mg QD) | Nausea, grade ≥3 (500 mg QD) | Oedema peripheral, grade ≥3 (500 mg QD) | Rash, all grades (500 mg QD) | Rash, grade ≥3 (500 mg QD) | Vomiting, grade ≥3 (500 mg QD) | ALT increased, all grades (800 mg QD) | ALT increased, grade ≥3 (800 mg QD) | AST increased, all grades (800 mg QD) | AST increased, grade ≥3 (800 mg QD) | Abdominal pain upper, all grades (800 mg QD) | Abdominal pain upper, grade ≥3 (800 mg QD) | Asthenia, all grades (800 mg QD) | Asthenia, grade ≥3 (800 mg QD) | Blood creatinine increased, all grades (800 mg QD) | Blood creatinine increased, grade ≥3 (800 mg QD) | Constipation, all grades (800 mg QD) | Constipation, grade ≥3 (800 mg QD) | Decreased appetite, all grades (800 mg QD) | Decreased appetite, grade ≥3 (800 mg QD) | Dermatitis acneiform, all grades (800 mg QD) | Dermatitis acneiform, grade ≥3 (800 mg QD) | Diarrhoea, grade ≥3 (800 mg QD) | Dry skin, all grades (800 mg QD) | Dry skin, grade ≥3 (800 mg QD) | Fatigue, all grades (800 mg QD) | Fatigue, grade ≥3 (800 mg QD) | Nasopharyngitis, all grades (800 mg QD) | Nasopharyngitis, grade ≥3 (800 mg QD) | Nausea, grade ≥3 (800 mg QD) | Neutropenia, all grades (800 mg QD) | Neutropenia, grade ≥3 (800 mg QD) | Oedema peripheral, all grades (800 mg QD) | Oedema peripheral, grade ≥3 (800 mg QD) | Rash, all grades (800 mg QD) | Rash, grade ≥3 (800 mg QD) | Vomiting, all grades (800 mg QD) | Vomiting, grade ≥3 (800 mg QD) | ALT increased, grade ≥3 (1000 mg QD) | AST increased, all grades (1000 mg QD) | AST increased, grade ≥3 (1000 mg QD) | Abdominal pain upper, all grades (1000 mg QD) | Abdominal pain upper, grade ≥3 (1000 mg QD) | Asthenia, all grades (1000 mg QD) | Asthenia, grade ≥3 (1000 mg QD) | Blood creatinine increased, all grades (1000 mg QD) | Blood creatinine increased, grade ≥3 (1000 mg QD) | Constipation, all grades (1000 mg QD) | Constipation, grade ≥3 (1000 mg QD) | Decreased appetite, all grades (1000 mg QD) | Decreased appetite, grade ≥3 (1000 mg QD) | Dermatitis acneiform, all grades (1000 mg QD) | Dermatitis acneiform, grade ≥3 (1000 mg QD) | Diarrhoea, grade ≥3 (1000 mg QD) | Dry skin, grade ≥3 (1000 mg QD) | Fatigue, grade ≥3 (1000 mg QD) | Nasopharyngitis, grade ≥3 (1000 mg QD) | Nausea, grade ≥3 (1000 mg QD) | Neutropenia, all grades (1000 mg QD) | Neutropenia, grade ≥3 (1000 mg QD) | Oedema peripheral, all grades (1000 mg QD) | Oedema peripheral, grade ≥3 (1000 mg QD) | Rash, all grades (1000 mg QD) | Rash, grade ≥3 (1000 mg QD) | Vomiting, all grades (1000 mg QD) | Vomiting, grade ≥3 (1000 mg QD) | Abdominal pain upper, grade ≥3 (All BID) | Asthenia, grade ≥3 (All BID) | Blood creatinine increased, grade ≥3 (All BID) | Constipation, grade ≥3 (All BID) | Decreased appetite, grade ≥3 (All BID) | Dermatitis acneiform, grade ≥3 (All BID) | Dry skin, grade ≥3 (All BID) | Fatigue, grade ≥3 (All BID) | Nasopharyngitis, grade ≥3 (All BID) | Nausea, grade ≥3 (All BID) | Neutropenia, grade ≥3 (All BID) | Rash, grade ≥3 (All BID) | Vomiting, grade ≥3 (All BID) | Abdominal pain upper, grade ≥3 (All QD) | Asthenia, grade ≥3 (All QD) | Blood creatinine increased, grade ≥3 (All QD) | Constipation, grade ≥3 (All QD) | Decreased appetite, grade ≥3 (All QD) | Dermatitis acneiform, grade ≥3 (All QD) | Diarrhoea, grade ≥3 (All QD) | Dry skin, grade ≥3 (All QD) | Fatigue, grade ≥3 (All QD) | Nasopharyngitis, grade ≥3 (All QD) | Oedema peripheral, grade ≥3 (All QD) | Rash, grade ≥3 (All QD) | Abdominal pain upper, grade ≥3 (All patients) | Asthenia, grade ≥3 (All patients) | Blood creatinine increased, grade ≥3 (All patients) | Constipation, grade ≥3 (All patients) | Decreased appetite, grade ≥3 (All patients) | Dermatitis acneiform, grade ≥3 (All patients) | Dry skin, grade ≥3 (All patients) | Fatigue, grade ≥3 (All patients) | Nasopharyngitis, grade ≥3 (All patients) | Rash, grade ≥3 (All patients)
21 (70.0) n (%): Nausea, all grades (All BID)
26 (38.2) n (%): Vomiting, all grades (All patients)
3 (75.0) n (%): Fatigue, all grades (1000 mg QD)
20 (52.6) n (%): Diarrhoea, all grades (All QD)
9 (23.7) n (%): ALT increased, all grades (All QD)
4 (100) n (%): Diarrhoea, all grades (1000 mg QD) | Nausea, all grades (1000 mg QD) | Patients with ≥1 AE, all grades (1000 mg QD)
hepatic failure: AE leading to discontinuation of LXS196 (SAE grade 3/4, one patient, BID schedule)
2 (18.2) n (%): Abdominal pain upper, all grades (500 mg QD) | Constipation, all grades (500 mg QD) | Neutropenia, all grades (500 mg QD)
15 (39.5) n (%): Vomiting, all grades (All QD)
4 (5.9) n (%): ALT increased, grade ≥3 (All patients)
11 (36.7) n (%): Vomiting, all grades (All BID)
15 (50.0) n (%): Patients with ≥1 AE, grade ≥3 (All BID)
1 (25.0) n (%): ALT increased, all grades (1000 mg QD) | Dry skin, all grades (1000 mg QD) | Hypotension, grade ≥3 (1000 mg QD) | Nasopharyngitis, all grades (1000 mg QD)
3 (10.0) n (%): AST increased, grade ≥3 (All BID) | Abdominal pain upper, all grades (All BID) | Nasopharyngitis, all grades (All BID)
1 (100) n (%): Diarrhoea, all grades (800 mg QD) | Hypotension, all grades (800 mg QD) | Hypotension, grade ≥3 (800 mg QD) | Nausea, all grades (800 mg QD) | Patients with ≥1 AE, all grades (800 mg QD) | Patients with ≥1 AE, grade ≥3 (800 mg QD)
8 (26.7) n (%): AST increased, all grades (All BID) | Oedema peripheral, all grades (All BID)
7 (23.3) n (%): Asthenia, all grades (All BID) | Constipation, all grades (All BID) | Fatigue, all grades (All BID) | Hypotension, all grades (All BID)
7 (10.3) n (%): Abdominal pain upper, all grades (All patients) | Dermatitis acneiform, all grades (All patients) | Nasopharyngitis, all grades (All patients) | Neutropenia, all grades (All patients)
30 (100) n (%): Patients with ≥1 AE, all grades (All BID)
1 (3.3) n (%): Diarrhoea, grade ≥3 (All BID) | Hypotension, grade ≥3 (All BID) | Oedema peripheral, grade ≥3 (All BID)
12 (31.6) n (%): Fatigue, all grades (All QD)
10 (26.3) n (%): Constipation, all grades (All QD)
10 (14.7) n (%): Decreased appetite, all grades (All patients) | Rash, all grades (All patients)
6 (20.0) n (%): Dry skin, all grades (All BID) | Rash, all grades (All BID)
9 (13.2) n (%): Dry skin, all grades (All patients)
3 (27.3) n (%): ALT increased, all grades (500 mg QD) | Hypotension, grade ≥3 (500 mg QD)
6 (8.8) n (%): Hypotension, grade ≥3 (All patients)
18 (26.5) n (%): ALT increased, all grades (All patients)
17 (25.0) n (%): Constipation, all grades (All patients)
17 (56.7) n (%): Diarrhoea, all grades (All BID)
48 (70.6) n (%): Nausea, all grades (All patients)
9 (30.0) n (%): ALT increased, all grades (All BID)
8 (11.8) n (%): Blood creatinine increased, all grades (All patients)
36 (94.7) n (%): Patients with ≥1 AE, all grades (All QD)
37 (54.4) n (%): Diarrhoea, all grades (All patients)
1 (9.1) n (%): ALT increased, grade ≥3 (500 mg QD) | AST increased, grade ≥3 (500 mg QD) | Dermatitis acneiform, all grades (500 mg QD) | Dry skin, all grades (500 mg QD) | Fatigue, all grades (500 mg QD) | Neutropenia, grade ≥3 (500 mg QD) | Oedema peripheral, all grades (500 mg QD)
4 (10.5) n (%): Abdominal pain upper, all grades (All QD) | Nasopharyngitis, all grades (All QD) | Rash, all grades (All QD)
8 (21.1) n (%): Asthenia, all grades (All QD) | Hypotension, all grades (All QD)
1 (1.5) n (%): Diarrhoea, grade ≥3 (All patients) | Nausea, grade ≥3 (All patients) | Oedema peripheral, grade ≥3 (All patients) | Vomiting, grade ≥3 (All patients)
8 (72.7) n (%): Nausea, all grades (500 mg QD)
13 (19.1) n (%): AST increased, all grades (All patients) | Oedema peripheral, all grades (All patients)
15 (22.1) n (%): Asthenia, all grades (All patients) | Hypotension, all grades (All patients)
3 (7.9) n (%): Blood creatinine increased, all grades (All QD) | Dry skin, all grades (All QD)
5 (7.4) n (%): AST increased, grade ≥3 (All patients)
5 (16.7) n (%): Blood creatinine increased, all grades (All BID) | Decreased appetite, all grades (All BID) | Dermatitis acneiform, all grades (All BID)
19 (27.9) n (%): Fatigue, all grades (All patients)
4 (36.4) n (%): AST increased, all grades (500 mg QD) | Asthenia, all grades (500 mg QD) | Decreased appetite, all grades (500 mg QD) | Hypotension, all grades (500 mg QD) | Patients with ≥1 AE, grade ≥3 (500 mg QD)
29 (42.6%) n (%) and 29 (42.6) n (%): Patients with ≥1 AE, grade ≥3 (All patients)
66 (97.1) n (%): Patients with ≥1 AE, all grades (All patients)
5 (13.2) n (%): AST increased, all grades (All QD) | Decreased appetite, all grades (All QD) | Hypotension, grade ≥3 (All QD) | Neutropenia, all grades (All QD) | Oedema peripheral, all grades (All QD)

Reference: PMC10006169, “A phase I trial of LXS196, a protein kinase C (PKC) inhibitor, for metastatic uveal melanoma” (British Journal of Cancer, 2023)
